# Laboratory results from patent US20200368198A1, “METHODS FOR INCREASING FERTILITY” (NEWSOUTH INNOVATIONS PTY LIMITED, priority 2017, published 2020).
# Where “and” joins values, the source holds several entries; their conditions need not be identical. Equal entries are not always repeated.
# How the values were obtained:
# [1] = system: offspring of C57BL6 females; experiment: Offspring of NMN treated females: development and glucose tolerance; format: in vivo, mice; details: offspring from NMN treated versus untreated females
# From the text: FIG. 5. Offspring from NMN treated females, or non-NMN treated females, were maintained on a chow diet or subjected to feeding of a high fat diet (HFD) from 8 weeks of age. A) is a graph of body weights of animals until 23 weeks of age. B) is a graph of fat mass of animals after 7 weeks of HFD feeding. C) is a graph of glucose tolerance test in animals at 7 weeks after chow or HFD feeding (2 g/kg, 6 hr fast). D) is a graph of area under the curve for glucose tolerance tests. Each group represents offspring from at least 7 different females. Error bars are SD.
# (§1) To determine whether NMN treatment could improve overall, functional fertility, we conducted a breeding trial in C57BL6 mice. Both pregnancy success rates and litter size (FIG. 4A) were improved in animals that received NMN, further confirming the importance of this mechanism to female fertility. Offspring from females that received NMN treatment developed at a similar rate to offspring from untreated females, even after challenging with high fat feeding (FIG. 5A and 5B).
# ovaries = experiment: Histological analysis of ovaries from NMN treated females; format: in vivo, mice
# From the text: (§2) Ovaries were dissected from freshly euthanased animals, and preserved in 10% neutral buffered formalin for 24 hr, followed by 70% ethanol, until embedding in paraffin blocks. Blocks were sectioned on a microtome and subjected to haematoxylin and eosin (H&E) staining. Primordial follicles were manually counted by a blinded investigator.
# (§3) To determine the impact of NMN on spindle assembly, oocytes from C57BL6 mice were next stained for spindle structure (FIG. 3F).
# C57BL6 females [2] = experiment: Reversal design: oocyte yield, cisplatin followed by NMN 4 weeks later; format: in vivo, mice; details: cisplatin 5 mg/kg i.p., per mouse
# Method: To assess oocyte yield, and mice were hormonally stimulated to superovulated by intraperitoneal injection with 7.5 IU/mL of Pregnant Mare's Serum Gonadotropin (PMSG) (Folligon; Intervet, Boxmeer, Holland) to stimulate follicular growth. After 44-46 hours, ovaries were collected in HEPES-buffered minimum essential medium (aMEM; Gibco Life Technologies, Grand Island, N.Y.) supplemented with 50 µM of 3-isobuty-1-methylxanthine (IBMX) (Sigma aldrich, NSW, AU) (M2 medium) to maintain meitotic arrest at germinal vesicle stage. Cumulus oocyte complexes (COCs) were isolated from preovulatory follicles using a 27-gauge needle and collected using flame-pulled borosilicate Pasteur pipettes in M2 medium supplemented with 3 mg/ml bovine serum albumin (BSA; Sigma Aldrich, St. Louis, Mo.) and 100 μM IBMX (Sigma Aldrich). Cumulus oocyte complexes (COCs) were mechanically denuded of cumulus cells by pipetting, and the denuded oocytes were transferred to another dish containing a drop of fresh M2-medium plus IBMX on heat block with 37° C. with lid to protect oocytes from light.
# Next, we decided to investigate whether NMN treatment delivered some time following chemotherapy treatment could actively reverse chemotherapy induced infertility. […]
# oocytes = experiment: Spindle structure staining of oocytes from aged NMN treated mice; format: in vivo
# From the text: as §3
# As with other sirtuins, SIRT2 is critically dependent for its activity on levels of its enzymatic co-factor NAD^+, which naturally declines with old age. We hypothesized that increasing NAD^+ availability during old age could restore SIRT2 activity, and recapitulate the improvements in fertility observed with old age during SIRT2 over-expression. To test this, non-genetically modified C57BL6 female mice were treated with the NAD^+ precursor nicotinamide mononucleotide (NMN), as in the Examples above. Mice were treated at 15 months of age, when mice normally experience ovarian failure (FIG. 34). Three weeks later, oocytes were harvested, and analysed for spindle structure (FIG. 35).
# SwissTacAusb female mice = experiment: Oocyte yield in high fat fed mice treated with NMN; format: in vivo; details: SwissTacAusb females, 3 months high fat feeding; NMN versus untreated high fat fed littermates
# From the text: Systemic treatment with the NAD^+ precursor nicotinamide mononucleotide (NMN) increases intracellular NAD^+ levels, and we hypothesised that NMN treatment could restore the activity of SIRT2 to stabilise BubR1 and maintain oocyte reserve and competence into later ages. We obtained 15 month-old female mice, an age at which this species is functionally infertile, and treated them with NMN through addition to drinking water (2 g/L) for 4 weeks. Animals were super-ovulated, and oocyte yield was assessed. […] Obesity is a major risk factor for female infertility, and to assess whether a similar mechanism was at work, we subjected young SwissTacAusb female mice to 3 months of high fat feeding, followed by NMN treatment for 4 weeks.
# C57BL6 mice = experiment: Breeding trial with NMN in drinking water; format: in vivo; details: NMN 2 g/L drinking water
# From the text: FIG. 4. A) is a graph showing litter size. C57BL6 mice were maintained on normal drinking water supplemented with or without NMN (2 g/L) from 2 months of age. From 4 months of age, animals were timed mated with proven stud male C57BL6. Pregnancy was confirmed using micro-ultrasound for the presence of a foetal heartbeat, and the number of pups born in subsequent litters recorded. B) is a graph showing body weights of pups from breeding trials at 12 days of age.
# as §1
# C57BL6 females [3] = experiment: Reversal design: primordial follicle counts in ovarian histology sections; format: in vivo, mice; details: doxorubicin 10 mg/kg i.p., NMN in drinking water started four weeks later for 4 weeks; per mouse
# From the text: as §2
# Next, we decided to investigate whether NMN treatment delivered some time following chemotherapy treatment could actively reverse chemotherapy induced infertility. […] Four weeks later, they received NMN in their drinking water, for another 4 weeks, prior to being euthanased for either oocyte studies or ovarian histological analysis. The rationale of this experimental design is to investigate whether NMN has the ability to induce regeneration of the ovary. According to the standard dogma of reproductive biology, mammals are born with a set number of follicles which are slowly released as oocytes over the course of a lifetime, with the ovaries incapable of regenerating new follicles.
# C57BL6 female mice = experiment: Cumulus oocyte complex yield after PMSG superovulation, doxorubicin with or without NMN; format: in vivo; details: per mouse, single dose doxorubicin 10 mg/kg i.p. and/or NMN 2 g/L drinking water, 2 months post doxorubicin
# Method: To assess oocyte yield, and mice were hormonally stimulated to superovulated by intraperitoneal injection with 7.5 IU/mL of Pregnant Mare's Serum Gonadotropin (PMSG) (Folligon; Intervet, Boxmeer, Holland) to stimulate follicular growth. After 44-46 hours, ovaries were collected in HEPES-buffered minimum essential medium (aMEM; […] Sigma Aldrich, St. Louis, Mo.) and 100 μM IBMX (Sigma Aldrich). […] NMN was delivered through addition to drinking water at 2 g/L, for a final dose of approximately 165 mg/kg. Administration of NMN began one day prior to doxorubicin administration. […] Ovaries were then punctured to release MI oocytes. In a separate cohort of animals, the same experiment was repeated using animals treated with the platinum based chemotherapy drug cisplatin. In FIG. 6 and Table 1, numbers of cumulus oocyte complexes are listed.
smiles,measurement,setting,value
"NC(=O)c1ccc[n+]([C@@H]2O[C@H](COP(=O)([O-])O)[C@@H](O)[C@H]2O)c1 [NMN, nicotinamide mononucleotide]",Glucose tolerance tests in offspring,[1],no change
same,"Oogonial reserve, histological analysis of ovaries",ovaries,improved oogonial reserve
same,Oocyte yield,C57BL6 females [2],restoration of oocyte number and 9 and 17 and 10
same,Spindle structure in oocytes,"oocytes; 15 month old C57BL6 females, NMN 3 weeks",reverse severe spindle defects
same,Spindle and chromosome arrangement in oocytes,"oocytes; aged C57BL6 females, NMN 2 g/L drinking water, 4 weeks","bi-polar, barrel-shaped arrangement with well-aligned chromosomes"
same,Oocyte yield in high fat fed mice,SwissTacAusb female mice,higher oocyte yield
same,Litter size,C57BL6 mice,improved
same,Pregnancy success rates,C57BL6 mice,improved
same,Primordial follicle numbers in ovarian histology sections,C57BL6 females [3],108 and 86 and 94 and 78
same,Numbers of cumulus oocyte complexes released from mice,C57BL6 female mice,able to protect against doxorubicin induced oocyte loss and 33 and 17 and 15 and 10 and 18 and 13
